# Entries after “also recorded” stand apart in the source; their conditions may differ.
# Key:
# [1] = target: T1, human Kir6.2/SUR2B KATP channel (Homo sapiens, UniProt O60706); test: FLIPR membrane potential assay in HEK-Kir6.2/SUR2B cells; format: cell-based
# T1 construct: expressed in transfected cells
# Protocol: The ability of CKLP1 and the active moiety of CKLP1, leveromakalim, to pharmacologically modulate the function of the human ATP-sensitive potassium channel comprised of Kir6.2 (encoded by the human gene KCNJ11) coupled to the sulfonylurea receptor SUR2B (encoded by the human gene ABCC9) was studied.
# Compounds were dissolved up to 10 mM stock solution in DMSO. Ten-point concentration response curves were generated at 100× concentration in 100% DMSO. Compound source plates were made by serially diluting 10 mM compound stocks in DMSO to generate a progressive semilog dilution schema. Dose response stock plate (10 μL) were then transferred into assay plates containing 90 μL of assay buffer, generating 10× working concentrations. Final assay test concentration ranges of 100 μM to 0.003 μM with a final DMSO concentration of 1.0%.
# Human embryonic kidney (HEK) cells stably expressing human Kir6.2/SUR2B KATP channel subunits were plated onto 96 well, black poly-d-lysine (PDL)-coated microplates and maintained in growth media the day prior to use for experiments. Media was removed from the plates and 90 μL of 1× stock of the membrane potential sensitive fluorescent dye FMP-Blue resuspended in assay buffer (EBSS—in mM: NaCl 145, KCl 2, Glucose 5, CaCl2) 1.8, MgCl2 0.8, HEPES 10, pH 7.4 with NaOH, 290-300 mOSm) was added to the cells. Cells were incubated at room temperature, protected from light, for 45-60 minutes. After the incubation period, cell, test compound and glibenclamide plates were loaded onto the fluorescence plate reader (FLIPR-TETRA™) and the scanning initiated. The FLIPR measured a 10 second baseline and then added 10 μL of 10× the final desired concentration of test agent. Changes in fluorescence were monitored for an additional 5 minutes. After the 5-minute compound incubation, 10 μL of the receptor inhibitor glibenclamide was added to the cell plate (10 uM final glibenclamide concentration). Changes in fluorescence was then monitored for an additional 5 minutes.
# Compound modulation of Kir6.2/SUR2B KATP channel mediated changes in cellular membrane potential was determined as follows. After the administration of compound, FMP fluorescence was monitored for a 5-minute period. The following parameters were recorded and exported from the FLIPR: the average relative fluorescence response (RFU) of 5 images taken at the 5-minute point in the assay with the average background EBSS buffer response subtracted. […] Test agent effect was calculated as % activation using the following formula: […]
# Curve fits were performed in GraphPad Prism graphing software using a 4-parameter, variable slope fit equation.
# [2] = Plasma pharmacokinetics of CKLP1 and levcromakalim after topical dosing in hound dogs; format: in vivo, hound dog; conditions: for AUC(0-t) / Cmax / Tmax / half-life: plasma
# Protocol: To assess the pharmacokinetic parameters, hound dogs (n=3) were treated with 50 μL topical ocular administration of 10 mM CKLP1 or vehicle (PBS) (n=2) in both eyes, once daily for eight days. Blood (approximately 3 mL) was collected in heparin blood collection tubes at eight different time points (5 minutes, 15 minutes, 30 minutes, 60 minutes, 2 hours, 4 hours, 8 hours and 24 hours) following treatment on days 1, 4 and 8. Plasma was separated from the blood by centrifugation at 2000 rpm for 5 minutes.
# Immediately prior to analysis, tissues were thawed and their weight was measured. PBS was added at double the tissue volume homogenized in a rotor stator homogenizer for 30 seconds. […] Detection was accomplished using positive electrospray ionization with multiple-reaction monitoring (MRM). […] Data were acquired and analyzed using Waters MassLynx v4.1 software.
# [3] = Plasma pharmacokinetics, 28-day topical ophthalmic dosing in beagle dogs; conditions: dog, in vivo
# Protocol: In the study, dogs (3 males and 3 females) received bilateral daily topical administration of 40 μL/eye of 2.0%, 4.0%, or 8.0% as measured in mg/mL (equivalent to 0.8, 1.6, or 3.2 mg CKLP1 per eye) of CKLP1 in phosphate buffered saline. Based on an average male dog weight of 7.9 kg at the start of the study, these doses were equivalent to 0.20 mg/kg, 0.41 mg/kg, or 0.81 mg/kg and based on an average female dog weight of 6.0 kg at the start of the study, these doses were equivalent to 0.27 mg/kg, 0.53 mg/kg, or 1.07 mg/kg. Blood was collected for toxicokinetic analysis pre-dose and at 1, 2, 4, 8, 12, and 24 hours post dosing on days 1 and 28. In addition, 2 animals of each gender were allowed 336 hours (14 days) of recovery time following the final dose, at which point final blood samples were obtained.
# [4] = CKLP1, topical 10 mM CKLP1 once daily, Day 1
# [5] = CKLP1, topical 10 mM CKLP1 once daily, Day 4
# [6] = CKLP1, topical 10 mM CKLP1 once daily, Day 8
# [7] = hound, dog, topical or ocular, 10 mM CKLP1, 50 µL in each of both eyes, CKLP1, topical 10 mM CKLP1 once daily, Day 1
# [8] = hound, dog, topical or ocular, 10 mM CKLP1, 50 µL in each of both eyes, CKLP1, topical 10 mM CKLP1 once daily, Day 4
# [9] = hound, dog, topical or ocular, 10 mM CKLP1, 50 µL in each of both eyes, CKLP1, topical 10 mM CKLP1 once daily, Day 8
# [10] = female, beagle, topical or ocular, 0.27 mg/kg
# [11] = female, beagle, topical or ocular, 1.07 mg/kg
# [12] = female, beagle, topical or ocular, […]
# [13] = male, beagle, topical or ocular, 0.2 mg/kg
# [14] = male, beagle, topical or ocular, 0.41 mg/kg
# [15] = male, beagle, topical or ocular, 0.81 mg/kg
# T1 sequence (O60706 1-1549 isoform O60706-2): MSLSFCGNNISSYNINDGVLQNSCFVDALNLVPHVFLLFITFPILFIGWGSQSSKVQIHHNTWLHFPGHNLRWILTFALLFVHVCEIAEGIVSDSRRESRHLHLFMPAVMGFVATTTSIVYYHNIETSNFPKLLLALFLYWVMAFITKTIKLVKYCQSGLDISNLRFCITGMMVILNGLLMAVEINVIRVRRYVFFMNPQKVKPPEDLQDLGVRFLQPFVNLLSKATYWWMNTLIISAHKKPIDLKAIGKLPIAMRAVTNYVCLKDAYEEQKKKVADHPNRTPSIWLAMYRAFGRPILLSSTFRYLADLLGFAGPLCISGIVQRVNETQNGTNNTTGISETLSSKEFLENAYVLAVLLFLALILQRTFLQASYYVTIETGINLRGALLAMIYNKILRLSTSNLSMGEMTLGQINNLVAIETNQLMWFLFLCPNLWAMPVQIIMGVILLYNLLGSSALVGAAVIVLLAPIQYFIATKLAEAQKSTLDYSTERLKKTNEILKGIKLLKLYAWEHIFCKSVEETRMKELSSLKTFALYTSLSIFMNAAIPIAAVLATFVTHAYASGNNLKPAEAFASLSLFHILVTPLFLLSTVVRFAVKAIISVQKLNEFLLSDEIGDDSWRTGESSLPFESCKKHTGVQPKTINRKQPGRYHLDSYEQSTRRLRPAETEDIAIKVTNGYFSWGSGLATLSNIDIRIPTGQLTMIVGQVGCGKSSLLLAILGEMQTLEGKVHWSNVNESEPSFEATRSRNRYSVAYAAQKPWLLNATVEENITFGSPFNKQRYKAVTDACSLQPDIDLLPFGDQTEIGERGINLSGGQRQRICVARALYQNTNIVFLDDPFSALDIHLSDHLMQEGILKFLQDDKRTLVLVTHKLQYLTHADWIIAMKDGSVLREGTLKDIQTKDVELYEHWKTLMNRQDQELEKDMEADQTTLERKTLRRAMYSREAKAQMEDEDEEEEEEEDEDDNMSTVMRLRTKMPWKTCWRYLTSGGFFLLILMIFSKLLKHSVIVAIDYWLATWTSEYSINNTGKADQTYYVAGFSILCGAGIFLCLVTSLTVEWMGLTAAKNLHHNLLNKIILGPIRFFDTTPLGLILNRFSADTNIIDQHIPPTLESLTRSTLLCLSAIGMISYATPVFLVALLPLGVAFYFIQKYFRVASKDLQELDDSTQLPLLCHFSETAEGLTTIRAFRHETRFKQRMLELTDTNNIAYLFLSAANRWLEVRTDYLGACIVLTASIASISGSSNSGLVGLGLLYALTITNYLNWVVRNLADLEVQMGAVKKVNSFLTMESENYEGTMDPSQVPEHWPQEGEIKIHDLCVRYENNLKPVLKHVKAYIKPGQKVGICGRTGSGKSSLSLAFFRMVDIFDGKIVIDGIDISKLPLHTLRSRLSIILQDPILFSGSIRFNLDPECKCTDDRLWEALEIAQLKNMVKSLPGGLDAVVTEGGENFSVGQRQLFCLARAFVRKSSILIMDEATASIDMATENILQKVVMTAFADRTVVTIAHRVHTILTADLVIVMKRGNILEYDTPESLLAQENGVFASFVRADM
# T1 sequence (Q14654 whole entry partner): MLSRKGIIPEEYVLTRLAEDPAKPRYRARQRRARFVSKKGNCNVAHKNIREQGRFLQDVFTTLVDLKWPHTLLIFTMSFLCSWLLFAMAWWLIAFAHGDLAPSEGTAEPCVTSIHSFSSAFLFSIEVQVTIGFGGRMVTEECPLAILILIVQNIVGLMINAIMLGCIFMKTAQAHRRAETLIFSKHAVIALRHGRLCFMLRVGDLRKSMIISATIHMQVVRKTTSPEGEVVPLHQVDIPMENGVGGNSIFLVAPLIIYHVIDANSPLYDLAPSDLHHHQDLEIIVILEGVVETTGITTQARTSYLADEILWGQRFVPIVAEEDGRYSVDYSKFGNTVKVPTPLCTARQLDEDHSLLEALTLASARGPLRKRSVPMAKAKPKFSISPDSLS
structure (smiles),measurement,setting,value
CC1(C)Oc2ccc(C#N)cc2[C@@H](N2CCCC2=O)[C@@H]1OP(=O)(O)O [CKLP1],EC50,"[1]; ability to modulate KATP channel, HEK-Kir6.2/SUR2B cells, normalized to 100 uM pinacidil, read-out: EC50 (μM) (mean ± SEM)",> 100 µM
same,Emax at 100 µM,"[1]; read-out: maximal response, % activation",9.4%
same,hyperpolarization / activation of Kir6.2/SUR2B KATP channels,[1]; up to 100 μM,did not result in any significant hyperpolarization; also recorded: failed to produce any significant activation
same,Clast,[2]; [4],2.6 ng/mL
same,Tlast,[2]; [4],480 min
same,Clast,[2]; [5],1.4 ng/mL
same,Tlast,[2]; [5],1440 min
same,Clast,[2]; [6],0.3 ng/mL
same,Tlast,[2]; [6],1450 min
same,AUC(0-t),[2]; [7],72.9 ng·h/mL
same,Cmax,[2]; [7],10.3 ng/mL
same,Tmax,"[2]; hound, dog, topical or ocular, 10 mM CKLP1, 50 µL in each of both eyes, CKLP1, topical 10 mM CKLP1 once daily, Day 1, read-out: Tmax (converted)",1 h
same,AUC(0-t),[2]; [8],103 ng·h/mL
same,Cmax,[2]; [8],12.2 ng/mL
same,Tmax,"[2]; hound, dog, topical or ocular, 10 mM CKLP1, 50 µL in each of both eyes, CKLP1, topical 10 mM CKLP1 once daily, Day 4, read-out: Tmax (converted)",2 h
same,AUC(0-t),[2]; [9],86.7 ng·h/mL
same,Cmax,[2]; [9],8.9 ng/mL
same,Tmax,"[2]; hound, dog, topical or ocular, 10 mM CKLP1, 50 µL in each of both eyes, CKLP1, topical 10 mM CKLP1 once daily, Day 8, read-out: Tmax (converted)",1 h
same,half-life,"[2]; hound, dog, topical or ocular, 10 mM, CKLP1, topical 10 mM CKLP1 once daily, Day 1",3.01 h
same,half-life,"[2]; hound, dog, topical or ocular, 10 mM, CKLP1, topical 10 mM CKLP1 once daily, Day 4",7.53 h
same,half-life,"[2]; hound, dog, topical or ocular, 10 mM, CKLP1, topical 10 mM CKLP1 once daily, Day 8",4.23 h
same,Tmax,"[2]; hound, dog, topical or ocular, 10 mM, topical 10 mM CKLP1, read-out: time of maximum concentration (Tmax) of CKLP1",≤ 1 h
same,AUC,"[2]; hound, dog, topical or ocular, CKLP1 in plasma, topical 10 mM CKLP1",87.7 ng·h/mL
same,AUC of CKLP1 relative to levcromakalim,[2]; topical 10 mM CKLP1,22.4 fold
same,Maximum concentration of CKLP1 in plasma,"[2]; topical 10 mM CKLP1, mean of days 1, 4, 8",10.5 ± 1.7 ng/mL
same,"conversion of CKLP1 to levcromakalim, estimate from blood concentrations",[2]; topical CKLP1,10%
same,half-life,"[3]; beagle, mean T1/2 of CKLP1",3.32 to 6.18 h
same,half-life,"[3]; beagle, terminal elimination half-life",3 to 6 h
same,concentration at 336 h,"[3]; both sexes, beagle",< 2 ng/mL
same,"predose levels of CKLP1 on day 28, times lower than peak plasma concentrations","[3]; both, beagle",16-25 times
same,accumulation of CKLP1 on day 28 relative to day 1,[3],no accumulation
same,time of Cmax of CKLP1,[3],1 to 2 h
same,AUC0-last,[3]; [10],545 ng·h/mL
same,AUC(0-inf),[3]; [10],660 ng·h/mL
same,Cmax,[3]; [10],80.2 ng/mL
same,Tmax,[3]; [10],2 h
same,t1/2,[3]; [10],3.68 h
same,AUC(0-t),"[3]; female, beagle, topical or ocular, 0.27 mg/kg, AUC0-last",496 ng·h/mL
same,Cmax,"[3]; female, beagle, topical or ocular, 0.27 mg/kg, Cmax",55.5 ng/mL
same,half-life,"[3]; female, beagle, topical or ocular, 0.27 mg/kg, t1/2",4.12 h
same,AUC0-last,[3]; [11],1200 ng·h/mL
same,AUC(0-inf),[3]; [11],1860 ng·h/mL
same,Cmax,[3]; [11],139 ng/mL
same,Tmax,[3]; [11],2 h
same,t1/2,[3]; [11],5.15 h
same,AUC(0-t),"[3]; female, beagle, topical or ocular, 1.07 mg/kg, AUC0-last",1480 ng·h/mL
same,Cmax,"[3]; female, beagle, topical or ocular, 1.07 mg/kg, Cmax",156 ng/mL
same,half-life,"[3]; female, beagle, topical or ocular, 1.07 mg/kg, t1/2",4.92 h
same,AUC0-last,[3]; [12],1750 ng·h/mL
same,Tmax,[3]; [12],2 h
same,half-life,"[3]; female, beagle, topical or ocular, […], t1/2",6.18 h
same,AUC0-last,[3]; [13],272 ng·h/mL
same,AUC(0-inf),[3]; [13],299 ng·h/mL
same,Cmax,[3]; [13],47.0 ng/mL
same,Tmax,[3]; [13],1 h
same,t1/2,[3]; [13],3.44 h
same,AUC(0-t),"[3]; male, beagle, topical or ocular, 0.2 mg/kg, AUC0-last",231 ng·h/mL
same,Cmax,"[3]; male, beagle, topical or ocular, 0.2 mg/kg, Cmax",36.5 ng/mL
same,half-life,"[3]; male, beagle, topical or ocular, 0.2 mg/kg, t1/2",3.69 h
same,AUC0-last,[3]; [14],381 ng·h/mL
same,AUC(0-inf),[3]; [14],571 ng·h/mL
same,Cmax,[3]; [14],57.3 ng/mL
same,Tmax,[3]; [14],1 h
same,t1/2,[3]; [14],3.32 h
same,AUC(0-t),"[3]; male, beagle, topical or ocular, 0.41 mg/kg, AUC0-last",520 ng·h/mL
same,Cmax,"[3]; male, beagle, topical or ocular, 0.41 mg/kg, Cmax",73.7 ng/mL
same,half-life,"[3]; male, beagle, topical or ocular, 0.41 mg/kg, t1/2",4.26 h
same,AUC0-last,[3]; [15],1260 ng·h/mL
same,AUC(0-inf),[3]; [15],1580 ng·h/mL
same,Tmax,[3]; [15],2 h
same,t1/2,[3]; [15],5.08 h
same,AUC(0-t),"[3]; male, beagle, topical or ocular, 0.81 mg/kg, AUC0-last",1520 ng·h/mL
same,Cmax,"[3]; male, beagle, topical or ocular, 0.81 mg/kg, CKLP1, Male, topical 8.0% CKLP1 daily, Day 1, read-out: Cmax",166 ng/mL
same,Cmax,"[3]; male, beagle, topical or ocular, 0.81 mg/kg, CKLP1, Male, topical 8.0% CKLP1 daily, Day 28, read-out: Cmax",147 ng/mL
same,half-life,"[3]; male, beagle, topical or ocular, 0.81 mg/kg, t1/2",4.82 h
same,Cmax,"[3]; male, beagle, topical or ocular, 8 %, day 28, males, read-out: mean Cmax at NOAEL",147 ng/mL
same,AUC(0-t),"[3]; male, beagle, topical or ocular, 8.0%, day 28, males, read-out: mean AUC Tlast at NOAEL",1260 ng·h/mL

# — patent publication US20220387457A1 (Qlaris Bio, Inc., priority 2020, published 2022)
